# Test results published in US6333428A, “6-fluorobicyclo[3.1.0]hexane derivatives” (Taisho Pharmaceutical Co., Ltd., priority 1998, dated 2001).
# pIC50: −log10 of the molar value. Where two headings read alike, the source gives them in different places.
# Target: T1, metabotropic glutamate receptors mG1uR2 (Rattus norvegicus, UniProt P31421)
# T1 construct: expressed in transfected cells
# Experiment: Effect of Test Compounds on cAMP Accumulation (inhibition of Forskolin-stimulated cAMP accumulation in CHO cells stably expressing mGluR2)
# Format: cell-based
# Experimental: After the medium was replaced with an L-glutamine free medium, they were cultured for 4 hours, and the supernatant liquid was aspirated. After adding 150 μl of PBS(+)-IBMX (10 mM PBS(-), 1 mM MgC12,1 mM CaCl2, 1 mM IBMX), incubation was conducted at 37° C. under the presence of 5% CO2 for 20 minutes. Once again the supernatant liquid was suctioned off, 60 μl of 10^-5 M Forskolin and PBS (+)-IBMX containing the specimens listed in Table 1 between 10^-10 and 10^-4 M were added, incubation was carried out for 15 minutes at 37° C. under the presence of 5% CO2, and a study was carried out for the inhibitory effect of the agonists on the Forskolin stimulation cAMP accumulation quantity [for control, the conditions were set to Forskolin with no addition of the compounds (Tanabe et al., Neuron, 8, 169-179 (1992))]. The reactions were halted by adding 100 μl of ice-cooled ethanol, the entire quantity of the supernatant liquid was collected in a separate plate, then was dried up at normal temperature with an evaporator, and was kept at -20° C. In the dried-up samples, the quantity of cAMP was measured using a cAMP EIA kit (from the Amasham company). The control value was subtracted from each cAMP quantity.
# [1] = CHO cells stably expressing mGluR2, 10^-5 M Forskolin, specimens 10^-10 to 10^-4 M, 15 minutes at 37° C., cAMP EIA kit, agonist
# T1 sequence (P31421 19-872): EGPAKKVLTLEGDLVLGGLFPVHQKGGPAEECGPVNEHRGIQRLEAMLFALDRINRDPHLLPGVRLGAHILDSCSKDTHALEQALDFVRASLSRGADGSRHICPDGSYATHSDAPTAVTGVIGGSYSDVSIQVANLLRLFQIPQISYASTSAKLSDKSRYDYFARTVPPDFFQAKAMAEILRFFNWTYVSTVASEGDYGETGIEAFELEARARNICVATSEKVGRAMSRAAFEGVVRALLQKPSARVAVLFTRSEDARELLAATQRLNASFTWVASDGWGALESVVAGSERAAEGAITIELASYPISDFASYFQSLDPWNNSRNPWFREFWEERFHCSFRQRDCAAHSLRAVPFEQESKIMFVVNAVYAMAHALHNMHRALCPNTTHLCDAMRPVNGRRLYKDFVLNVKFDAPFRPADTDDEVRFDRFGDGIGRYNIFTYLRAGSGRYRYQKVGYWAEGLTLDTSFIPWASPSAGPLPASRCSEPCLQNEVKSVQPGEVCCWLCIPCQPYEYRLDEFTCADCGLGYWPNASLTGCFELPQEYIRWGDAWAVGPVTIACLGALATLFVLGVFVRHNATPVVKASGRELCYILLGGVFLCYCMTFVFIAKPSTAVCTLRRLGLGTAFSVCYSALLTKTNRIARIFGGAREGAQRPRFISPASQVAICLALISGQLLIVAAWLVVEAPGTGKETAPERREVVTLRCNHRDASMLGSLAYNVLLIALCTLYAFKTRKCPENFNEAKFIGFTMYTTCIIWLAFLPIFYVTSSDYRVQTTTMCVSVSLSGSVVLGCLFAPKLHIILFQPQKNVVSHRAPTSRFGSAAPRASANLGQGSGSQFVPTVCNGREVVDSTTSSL
Compound,pIC50 [1],pIC50
"N[C@@]1(C(=O)O)CC[C@@H]2[C@H]1[C@@]2(F)C(=O)O (racemic) [Comp. 1, (1RS, 2SR, 5RS, 6RS)-2-amino-6-fluorobicyclo[3.1.0]hexane-2,6-dicarboxylic acid]",7.47,
"N[C@@]1(C(=O)O)CC(=O)[C@@H]2[C@H]1[C@@]2(F)C(=O)O (racemic) [Comp. 3, (1RS, 2SR, 5SR, 6SR)-2-amino-6-fluoro-4-oxobicyclo[3.1.0]hexane-2,6-dicarboxylic acid]",8.90,
"N[C@@]1(C(=O)O)C[C@H](O)[C@@H]2[C@H]1[C@@]2(F)C(=O)O (racemic) [Comp. 5, (1RS, 2SR, 4SR, 5SR, 6SR)-2-amino-6-fluoro-4-hydroxybicyclo [3.1.0]hexane-2,6-dicarboxylic acid]",7.71,
"N[C@@]1(C(=O)O)CC[C@@H]2[C@H]1[C@@]2(F)C(=O)O (single isomer, unassigned) [Comp. 2, (-)-(1R*, 2S*, 5R*, 6R*)-2-amino-6-fluorobicyclo[3.1.0]hexane-2,6-dicarboxylic acid]",7.78,
"N[C@@]1(C(=O)O)CC(=O)[C@@H]2[C@H]1[C@@]2(F)C(=O)O (single isomer, unassigned) [Comp. 4, (+)-(1R*, 2S*, 5S*, 6S*)-2amino-6-fluoro-4-oxobicyclo [3.1.0]hexane-2,6-dicarboxylic acid]",9.18,
"N[C@@]1(C(=O)O)CC[C@@H](C(=O)O)C1 [(1s,3R)-ACPD, (1S, 3R)-1-aminocyclopentane-1,3-dicarboxylic acid, reference compound]",,5.82
"N[C@H](C(=O)O)C1[C@@H](C(=O)O)[C@@H]1C(=O)O (stereo partly drawn) [DCG IV, (2S, 1'R, 2'R, 3'R)-2-(2', 3'-dicarboxycycloproyl)glycine, reference compound]",7.01,
"N[C@H](C(=O)O)[C@H]1C[C@@H]1C(=O)O [L-CCG-I, (2S, 1'S, 2'S)-2-(carboxycyclopropyl)glycine, reference compound]",6.92,
